Data as given in publication PMC9820345, “Metal Complexes of a 5-Nitro-8-Hydroxyquinoline-Proline Hybrid with Enhanced Water Solubility Targeting Multidrug Resistant Cancer Cells” (International Journal of Molecular Sciences, 2022).
Like-named read-outs stand apart in the source and are kept apart here. Values belong to the molecule of their own block, whether it stands above or below them.

How the values were obtained:
[1] = cited from earlier work
MES-SA/Dx5 = assay: In vitro cytotoxicity, MES-SA/Dx5 cells (fluorescent protein readout); type: cell-based, human
Excerpt: (§1) Cell lines: all cell culture reagents were obtained from Sigma-Aldrich; plasticware was purchased from Sarstedt (Nümbrecht, Germany); Human colon Colo205 (chemo-sensitive, ATCC-CCL-222) and Colo320 (Pgp/MDR1-expressing, doxorubicin-resistant, ATCC-CCL-220.1) adenocarcinoma cell lines were purchased from LGC Promochem, Teddington, UK; MES-SA and MES-SA/Dx5 uterine sarcoma cell lines were obtained from ATCC, where they were characterized by DNA fingerprinting. The expression of the Pgp efflux pump of MES-SA/Dx5 was proven by Western blot analysis in our former report, and was also reported for the Colo320 cells. The MES-SA and MES-SA/Dx5 cells used in this study were previously engineered to express the fluorescent proteins mCherry and eGFP, respectively, by lentiviral transduction.
(§2) MES-SA cell lines were maintained in DMEM, supplemented with 10% fetal bovine serum, 5 mmol/L glutamine, and 50 units/mL penicillin and streptomycin. Cells were tested and resulted negative for mycoplasma contamination with the MycoAlert mycoplasma detection Kit (Lonza Group, Basel, Switzerland). One week prior to the cytotoxicity assays, Dx5 eGFP cells were selected in 500 nM doxorubicin for one passage to ensure the overexpression of P-glycoprotein.
(§3) Cytotoxicity assays: The tested compounds were dissolved in PBS buffer to prepare 5 mM stock solutions, which were diluted in complete culture medium.
(§4) In the case of the MES-SA and MES-SA/Dx5 cells, cell suspensions of the fluorescent cell lines were pre-mixed in a 1:1 ratio and seeded in 20 µL medium in a density of 2500 cells/well (1250 cells/well each) in a 384-well plate. After an overnight incubation, a serial dilution of the compounds was added to the plate in a final volume of 60 µL. The P-gp inhibitor tariquidar was added to the cells 15 min prior to the test compounds. After 144 h of incubation, plates were measured for the fluorescent intensity of mCherry (EX/EM: 585 nm/610 nm) and eGFP (EX/EM: 485 nm/510 nm). Cell seeding, aspiration of medium, and addition of drugs were performed by a Hamilton StarLet automated liquid handling robot.
(§5) Inhibition of the cell growth (expressed as IC50: inhibitory concentration that reduces by 50% the growth of the cells exposed to the tested compounds) was determined from the sigmoid curve where 100 − ((ODsample − ODmedium control)/(ODcell control − ODmedium control)) × 100 values were plotted against the logarithm of compound concentrations. Curves for the data obtained on Colo205 and Colo320 cells were fitted by GraphPad Prism software (2021, Graphpad Software, version 7.00, San Diego, CA, USA) using the sigmoidal dose–response model (comparing variable and fixed slopes). From the MES-SA cell data, the IC50 values were calculated by our custom program, written by J. Sessler in C#. The p values were calculated by Student’s t-test. The IC50 values were always obtained from at least three independent experiments.

MES-SA = assay: In vitro cytotoxicity, MES-SA cells (fluorescent protein readout); type: cell-based, human; conditions: 144 h exposure
Excerpt: as §1, §2, §3, §4, §5

[2] = parameters: method as in earlier work; conditions: pH 7.40, cited from earlier work
[3] = parameters: method as in PMID 32500882; conditions: cited from earlier work
Colo320 = system: Colo320; parameters: method as in PMID 32500882; conditions: cited from earlier work; for IC50: 72 h exposure; for Selectivity ratio IC50 (Colo205)/IC50 (Colo320): calculated from IC50 values taken from ref 12
Colo205 = system: Colo205; parameters: method as in PMID 32500882; conditions: 72 h exposure; cited from earlier work
[4] = Aqueous solubility at physiological pH (S7.4); type: physicochemical; conditions: pH 7.4
[5] = Proton dissociation constants (pKa) of the ligand by pH-potentiometric, UV-vis and 1H NMR titrations; type: physicochemical; conditions: pH 7.4
Procedure: Characterization of the protonation/deprotonation equilibrium processes of a bioactive molecule is important to reveal its actual chemical form and charge at a given pH. The proton dissociation constant (Ka) is a key physico-chemical parameter since it has an impact on many biopharmaceutical characteristics such as lipophilicity, water solubility, and albumin binding, which in turn directly influences pharmacokinetics. The pKa values of the protonated HQNO2-L-Pro were determined by pH-potentiometric, UV-vis (Figure 1a), and ^1H NMR spectroscopic titrations (Table 1).
The pH-potentiometric measurements were carried out at 25.0 ± 0.1 °C in water in the pH range between 2.0 and 11.5 at a constant ionic strength of 0.2 M KNO3. The titrations were performed in a carbonate-free KOH solution (0.20 or 0.10 M). The exact concentrations of HNO3, HCl, and KOH solutions were always determined by pH-potentiometric titrations. An Orion 710A pH-meter equipped with a Metrohm combined electrode (type 6.0234.100) and a Metrohm 665 Dosimat burette were used for the measurements. […] The average water ionization constant (pKw) was determined as 13.76 ± 0.01, which is in good agreement with the literature data. In the case of the titrations in 30% (v/v) DMSO/H2O, the calibration of the pH-potentiometric system was conducted as in our former works. Samples were degassed by bubbling purified argon through them for about 10 min prior to the measurements, and the inert gas was also passed over the solutions during the titrations. Stoichiometry of the species and their equilibrium constants were obtained similarly to that performed in our previous works, with the use of computer program Hyperquad2013 [50].
An Agilent Cary 8454 diode array spectrophotometer (Santa Clara, CA, USA) was used to obtain UV-vis spectra in the wavelength range 200–1000 nm, while spectra were recorded for the Fe(II)-containing samples using an Avantes (Avantes B.V., Apeldoorn, The Nederlands) AvaSpec-ULS2048CL-EVO spectrometer with an AvaLight-DHc light source and FDP-7UVIR200-2-VAR transmission dip probe. The titrations for the Fe(II)-containing samples were performed in a laboratory glove box (GP(Campus), Jacomex) (O2 content ≤ 1 ppm). The path length (ℓ) was 1 cm in most cases (the actual ℓ is always indicated in the legends of the figures). The concentrations of the ligands and complexes were between 40 and 200 µM, and 0.2 M KNO3 for the organometallic complexes or 0.1 M KCl for the Fe(II/III), Cu(II), and Zn(II) complexes were used to adjust the constant ionic strength. For HSA containing samples, complex concentrations were 50 µM, and 0.5, and 2 equiv. biomolecules were added for kinetic studies, respectively. For HSA model containing samples, complex concentrations were 50 µM, and the model concentrations were 0–150 µM and 0–500 µM, respectively, and the pH was 7.4 (PBS’). Spectra were always background and baseline corrected. The computer program HypSpec was used to obtain stability constants. Hydrolysis constants of the Fe(III), Fe(II), RuCym, and RhCp* species were included in the speciation models (see Table S4 with the data taken from References).
The Bruker Avance III HD Ascend 500 Plus instrument (Billerica, MA, USA) was used for NMR studies. ^1H NMR spectroscopic measurements were carried out with a WATERGATE water suppression pulse scheme in the presence of 10% (v/v) D2O/H2O in most cases. DSS internal standard was added to samples to obtain reference peaks. ^1H NMR titrations were carried out for the ligand alone, and for the organometallic complexes in the presence of 0.2 M KNO3. With the AHA and FHA model peptides, the measurements were performed at pH 7.4 (PBS’) at 0.5 or 1 mM metal complex concentrations, and 1:1, 1:2 or 2:1 peptide-to-metal complex ratios were applied. NMR titrations were also performed for the Zn(II)-ligand systems using 0.1 M KCl ionic strength. […]

[6] = pH 7.4, cited from earlier work
HSA site II = target: T1, HSA site II (Homo sapiens, UniProt P02768); parameters: method as in PMID 32500882; conditions: cited from earlier work
T1 construct: purchased Sigma-Aldrich (Darmstadt, Germany) A8763
T1 sequence (P02768 25-609): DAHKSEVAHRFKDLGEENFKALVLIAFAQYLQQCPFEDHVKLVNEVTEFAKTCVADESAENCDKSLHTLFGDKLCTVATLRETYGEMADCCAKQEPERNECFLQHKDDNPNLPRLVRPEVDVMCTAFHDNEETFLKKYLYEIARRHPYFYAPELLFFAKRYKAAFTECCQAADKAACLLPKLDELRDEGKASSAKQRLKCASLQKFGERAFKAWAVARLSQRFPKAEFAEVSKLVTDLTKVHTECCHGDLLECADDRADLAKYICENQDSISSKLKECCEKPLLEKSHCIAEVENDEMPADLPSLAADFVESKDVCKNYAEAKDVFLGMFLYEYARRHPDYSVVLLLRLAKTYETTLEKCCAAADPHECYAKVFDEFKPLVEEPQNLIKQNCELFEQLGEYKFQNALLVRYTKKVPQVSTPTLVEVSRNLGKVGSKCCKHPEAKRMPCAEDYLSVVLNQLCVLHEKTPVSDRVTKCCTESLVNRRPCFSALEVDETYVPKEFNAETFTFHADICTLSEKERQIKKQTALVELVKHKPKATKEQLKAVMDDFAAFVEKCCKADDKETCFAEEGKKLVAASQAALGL

HSA site I (Trp-214) = target: T2, HSA site I (Trp-214) (Homo sapiens, UniProt P02768); parameters: method as in PMID 32500882; conditions: cited from earlier work
T2 construct: purchased Sigma-Aldrich (Darmstadt, Germany) A8763
T2 sequence (P02768 25-609): as above

SMILES: Oc1c(CN2CCCCC2)ccc2cccnc12 [7-(piperidin-1-ylmethyl)quinolin-8-ol]
- formal potential E'1/2 of the iron complexes [1]: +21 mV vs. NHE

- solubility in water at physiological pH (S7.4) [4]: > 10 mM
- fraction of negatively charged form [5]: 36.5%
- fraction of neutral form [5]: 63.5%
SMILES: O=C(O)[C@@H]1CCCN1Cc1cc(Cl)c2cccnc2c1O [HQCl-L-Pro, reference compound]
- IC50 (MES-SA/Dx5; 144 h exposure): 4.3 ± 0.1 µM
- Selectivity ratio IC50 (MES-SA)/IC50 (MES-SA/Dx5) (MES-SA/Dx5; calculated from IC50 values in Table 4): 5.41
- IC50 (MES-SA): 23 ± 4 µM
- log D7.4 ([2]; 4 mM chloride): +0.13 ± 0.09
- pKa (NProH+) [3]: > 11.5
- pKa (OH) [3]: 7.76
- IC50 (Colo320): 9 ± 2 µM
- Selectivity ratio IC50 (Colo205)/IC50 (Colo320) (Colo320): 2.75
- IC50 (Colo205): 23 ± 3 µM

SMILES: Oc1cccc2cccnc12 [8-hydroxyquinoline]
- formal potential E'1/2 of the iron complexes [1]: −323 mV vs. NHE

SMILES: Cc1c(C)c(C)[c-](C)c1C.O=C(O)[C@@H]1CCC[NH+]1Cc1cc(Cl)c2ccc[n+]3c2c1[O][Rh]3[Cl].[Cl-] [RhCp*-HQCl-L-Pro]
- conditional stability constant logK' ([6]; calculated based on ref 12): 12.98
- log D7.4 ([2]; 100 mM chloride): +0.10 ± 0.01
- DG marker displacement constant logKDG' (HSA site II): 5.6
- IC50 (Colo320): 10 ± 1 µM
- Selectivity ratio IC50 (Colo205)/IC50 (Colo320) (Colo320): 2.66
- IC50 (Colo205): 26 ± 5 µM
- quenching constant logKQ' (HSA site I (Trp-214)): 5.5

SMILES: Cc1c(C)c(C)[c-](C)c1C.[Cl][Rh]1[O]c2cccc3ccc[n+]1c23 [RhCp*-HQ]
- conditional stability constant logK' ([6]; calculated based on ref 23): 12.76
